Values quoted from earlier work as cited in patent publication US7265142B2, “Materials and methods for the treatment of hypertension and angina” (ARYx Therapeutics, priority 2001, dated 2007).

Conditions: background statement; patients switched from mibefradil to dihydropyridine CCBs

half-life: up to 24 hours
SMILES: COCC(=O)O[C@]1(CCN(C)CCCc2nc3ccccc3[nH]2)CCc2cc(F)ccc2[C@@H]1C(C)C [mibefradil]
